We go through four compounds from ChEMBL document CHEMBL5505969, “Discovery of new piperaquine hybrid analogs linked by triazolopyrimidine and pyrazolopyrimidine scaffolds with antiplasmodial and transmission blocking activities” (Eur J Med Chem, 2024).

In data set [1] the target is T1, Dihydroorotate dehydrogenase (quinone), mitochondrial (Plasmodium falciparum (isolate 3D7)) (UniProt Q08210).
T1 sequence (whole entry): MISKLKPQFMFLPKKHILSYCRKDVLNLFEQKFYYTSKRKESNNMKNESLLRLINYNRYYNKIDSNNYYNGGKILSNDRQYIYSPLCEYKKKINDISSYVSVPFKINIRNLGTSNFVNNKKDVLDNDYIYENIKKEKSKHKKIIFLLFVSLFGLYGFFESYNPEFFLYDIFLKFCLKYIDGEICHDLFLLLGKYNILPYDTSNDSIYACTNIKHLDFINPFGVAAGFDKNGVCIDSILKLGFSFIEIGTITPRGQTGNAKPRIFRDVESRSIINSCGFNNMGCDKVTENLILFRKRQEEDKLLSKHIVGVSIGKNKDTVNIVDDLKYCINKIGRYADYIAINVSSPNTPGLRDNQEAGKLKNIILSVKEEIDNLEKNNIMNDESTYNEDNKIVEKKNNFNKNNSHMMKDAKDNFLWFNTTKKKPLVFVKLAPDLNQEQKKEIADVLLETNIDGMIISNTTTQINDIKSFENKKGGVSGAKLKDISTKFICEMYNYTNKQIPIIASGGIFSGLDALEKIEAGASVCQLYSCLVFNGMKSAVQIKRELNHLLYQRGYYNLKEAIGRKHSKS
The experiment in a line: Inhibition of Plasmodium falciparum DHODH assessed as residual activity at 100 uM measured over 60 secs by DCIP dye based colorimetric assay relative to control. The conditions noted are these: time > 60.0 sec.

Data set [2] can be described thus: Cytotoxicity against human HepG2 cells assessed as reduction in cell viability incubated for 72 hrs by MTT assay. It is filed as toxicity, cell-based. (In general: Formazan colour is commonly taken as a measure of viable cells.)
The test system of data set [3] is Plasmodium falciparum. Description: Antiplasmodial activity against GFP expressing sorbitol-synchronized ring stage laboratory adapted Plasmodium falciparum 3D7HT assessed as reduction in infectivity by measuring inhibition of gametocyte formation at 10 uM treated for 72 hrs followed by replacement with fresh media without compound for 24 hrs and measured on day 4 by giemsa staining based microscopic analysis. It is filed as functional.

In data set [4] the test system is Plasmodium falciparum. The experiment in a line: Antiplasmodial activity against sorbitol-synchronized ring stage chloroquine, mefloquine and pyrimethamine resistant Plasmodium falciparum Dd2 harboring N86F/M74I/ N75E/[…] mutation in MDR1 gene, N51I/C59R/S108N mutation in DHFR gene and S436F/A437G/A613S mutation in DHPS gene infected in erythrocytes measured after 48 hrs by SYBR green dye based fluorescence analysis. It is filed as functional, organism-based. The settings on record: Dd2, Erythrocyte.

For data set [5], the target named is T1, Dihydroorotate dehydrogenase (quinone), mitochondrial (Plasmodium falciparum (isolate 3D7)). Description: Inhibition of Plasmodium falciparum DHODH at 100 uM measured over 60 secs by DCIP dye based colorimetric assay relative to control. The conditions noted are these: time > 60.0 sec.
Data set [6] concerns the target T2, Dihydroorotate dehydrogenase (quinone), mitochondrial (Plasmodium falciparum (isolate 3D7), UniProt Q08210).
T2 sequence (Q08210 whole entry): T1 sequence (whole entry)
Description: Inhibition of Plasmodium falciparum DHODH measured over 60 secs by DCIP dye based colorimetric assay.

Data set [7] has as its system Plasmodium falciparum. The experiment in a line: Antiplasmodial activity against sorbitol-synchronized ring stage chloroquine sensitive Plasmodium falciparum 3D7 infected in erythrocytes measured after 48 hrs by SYBR green dye based fluorescence analysis. It is filed as functional, organism-based. The conditions noted are these: 3D7, Erythrocyte.
Data set [8] can be described thus: Selectivity index, ratio of CC50 for human HepG2 cells to IC50 for antiplasmodial activity against sorbitol-synchronized ring stage chloroquine sensitive Plasmodium falciparum 3D7 infected in erythrocytes. It is filed as toxicity, cell-based. The settings on record: Plasmodium falciparum 3D7 in erythrocytes, read-out: Ratio CC50/IC50.
In data set [9] the test system is Plasmodium falciparum. The experiment in a line: Resistance index, ratio of IC50 for antiplasmodial activity against sorbitol-synchronized ring stage chloroquine, mefloquine and pyrimethamine resistant Plasmodium falciparum Dd2 harboring N86F/M74I/ N75E/[…] mutation in MDR1 gene, N51I/C59R/S108N mutation in DHFR gene and S436F/A437G/A613S mutation in DHPS gene infected in erythrocytes to IC50 for antiplasmodial activity against sorbitol-synchronized ring stage chloroquine sensitive Plasmodium falciparum 3D7 infected in erythrocytes. It is filed as functional.

The subject of the next data set is Plasmodium berghei. Description: Antiplasmodial activity against GFP-expressing Plasmodium berghei HSP70 infected in CD-1 mouse assessed as inhibition of ookinete formation at 10 uM measured after 22 hrs by giemsa staining based microscopic analysis. It is filed as functional. The settings on record: read-out: INH.
Data set [10] deals with Plasmodium falciparum. The experiment in a line: Resistance index, ratio of IC50 for antiplasmodial activity against sorbitol-synchronized ring stage 2-(1,1-difluoroethyl)-5-methyl-N-(4-(pentafluoro-l6-sulfaneyl)phenyl)-[1,2,4]triazolo[1,5-a]pyrimidin-7-amine resistant Plasmodium falciparum Dd2 infected in erythrocytes to IC50 for antiplasmodial activity against sorbitol-synchronized ring stage chloroquine sensitive Plasmodium falciparum 3D7 infected in erythrocytes. It is filed as functional.

Data set [11] deals with Plasmodium falciparum. The experiment in a line: Resistance index, ratio of IC50 for antiplasmodial activity against sorbitol-synchronized ring stage atovaquone resistant Plasmodium falciparum TM90C6B harboring Y268S mutation in CYTB gene, Y184F mutation in MDR1 gene, N51I/C59R/S108N mutation in DHFR gene and S436F/A437G/A581G mutation in DHPS gene infected in erythrocytes to IC50 for antiplasmodial activity against sorbitol-synchronized ring stage chloroquine sensitive Plasmodium falciparum 3D7 infected in erythrocytes. It is filed as functional.

Data set [12] relates to Plasmodium falciparum. Description: Antiplasmodial activity against Plasmodium falciparum infected in erythrocytes assessed as induction of parasite death by measuring appearance of multiple pyknotic nuclei at 10 uM measured after 24 to 72 hrs. It is filed as functional, organism-based. The conditions noted are these: Erythrocyte, time 24-72 hrs.
Data set [13] has as its system Plasmodium falciparum. The experiment in a line: Potency index, ratio of chloroquine IC50 to test compound IC50 for antiplasmodial activity against sorbitol-synchronized ring stage chloroquine resistant Plasmodium falciparum K1 infected in erythrocytes measured after 48 hrs by SYBR green dye based fluorescence analysis. It is filed as functional, Erythrocyte.
In data set [14] the test system is Plasmodium falciparum. Description: Resistance index, ratio of IC50 for antiplasmodial activity against sorbitol-synchronized ring stage MMV848 resistant Plasmodium falciparum 3D7 infected in erythrocytes to IC50 for antiplasmodial activity against sorbitol-synchronized ring stage chloroquine sensitive Plasmodium falciparum 3D7 infected in erythrocytes. It is filed as functional.

Data set [15] relates to Plasmodium falciparum. The experiment in a line: Antiplasmodial activity against Plasmodium falciparum infected in erythrocytes assessed as reduction in parasite growth at 10 uM measured within 24 hrs. It is filed as functional, organism-based. The settings on record: Erythrocyte.
The subject of data set [16] is Plasmodium falciparum. Description: Resistance index, ratio of IC50 for antiplasmodial activity against sorbitol-synchronized ring stage chloroquine resistant Plasmodium falciparum K1 infected in erythrocytes to IC50 for antiplasmodial activity against sorbitol-synchronized ring stage chloroquine sensitive Plasmodium falciparum 3D7 infected in erythrocytes. It is filed as functional.

The nature of data set [17]: Ratio of IC50 for Plasmodium falciparum infected in erythrocytes measured after 24 hrs by SYBR green dye based fluorescence assay to IC50 for Plasmodium falciparum infected in erythrocytes measured after 72 hrs by SYBR green dye based fluorescence assay. It is filed as functional, Erythrocyte.
Data set [18] has as its system Plasmodium falciparum. Description: Antiplasmodial activity against sorbitol-synchronized ring stage MMV848 resistant Plasmodium falciparum 3D7 infected in erythrocytes measured after 48 hrs by SYBR green dye based fluorescence analysis. It is filed as functional, organism-based. The conditions noted are these: 3D7, Erythrocyte.
For data set [19], the system named is Plasmodium falciparum. Description: Antiplasmodial activity against sorbitol-synchronized ring stage atovaquone resistant Plasmodium falciparum TM90C6B harboring Y268S mutation in CYTB gene, Y184F mutation in MDR1 gene, N51I/C59R/S108N mutation in DHFR gene and S436F/A437G/A581G mutation in DHPS gene infected in erythrocytes measured after 48 hrs by SYBR green dye based fluorescence analysis. The settings on record: Erythrocyte. It is filed as functional, organism-based.

Data set [20] has as its system Plasmodium falciparum. The experiment in a line: Antiplasmodial activity against sorbitol-synchronized ring stage 2-(1,1-difluoroethyl)-5-methyl-N-(4-(pentafluoro-l6-sulfaneyl)phenyl)-[1,2,4]triazolo[1,5-a]pyrimidin-7-amine resistant Plasmodium falciparum Dd2 infected in erythrocytes measured after 48 hrs by SYBR green dye based fluorescence analysis. It is filed as functional, organism-based. The settings on record: Dd2, Erythrocyte.

Data set [21] has as its system Plasmodium falciparum. Description: Antiplasmodial activity against sorbitol-synchronized ring stage chloroquine resistant Plasmodium falciparum K1 infected in erythrocytes measured after 48 hrs by SYBR green dye based fluorescence analysis. It is filed as functional, organism-based. The conditions noted are these: K1, Erythrocyte.
Data set [22] has as its target T2, Dihydroorotate dehydrogenase (quinone), mitochondrial. Description: Inhibition of Plasmodium falciparum DHODH.
The subject of data set [23] is Plasmodium falciparum. Description: Potency index, ratio of chloroquine IC50 to test compound IC50 for antiplasmodial activity chloroquine-resistant against Plasmodium falciparum W2 by anti-[…] incorporation assay. It is filed as functional.
The test system of data set [24] is Plasmodium falciparum. Description: Antiplasmodial activity against Plasmodium falciparum 3D7. It is filed as functional, organism-based.

As a reminder, the CC50 is the concentration that lowers cell viability or growth by half. The term inhibition denotes the drop in the measured response relative to a control, in per cent. What is called IC50 is the concentration needed to halve the response being measured. Low values mean inhibition by little substance, high ones a need for much substance.

The source made the active and inactive calls. The calls are words filed in the database; no cut-off is given here. Some results are limits rather than exact numbers.

Regarding `Cc1cc(NCCCCCCCNc2ccnc3cc(Cl)ccc23)n2nc(C(F)(F)F)nc2n1`, the Activity in data set [1] came out at 16.4%. Also, the cytotoxic concentration (CC50) at 72 h in data set [2] stood at 13 µM. Further, in the data set on Plasmodium falciparum [3], the inhibition at 10 µM was determined as 69%. The values for the IC50 (in the data set with Plasmodium falciparum [4]; in data set [6]; in the data set on Plasmodium falciparum [7]) were 330 nM, 4.8 µM and 400 nM, respectively. The compound also came in with an inhibition in [5] of 84%. The selectivity ratio in [8] was determined as 33. Also, the “Ratio IC50” value with Plasmodium falciparum [9] is 0.8. For the same compound, the Percent inhibition of ookinete formation at 10 µM in the data set with Plasmodium berghei worked out at 20%.
As to `Cc1cc(NCCCCCCCNc2ccnc3cc(Cl)ccc23)n2nc(C)cc2n1`, the Activity in data set [1] came out at 89.4%. In data set [2], the CC50 at 72 h was 9.7 µM. For the same compound, the “Ratio IC50” value was 1 in the data set with Plasmodium falciparum [10]; 0.9 with Plasmodium falciparum [11]; 3 with Plasmodium falciparum [13]; 0.4 in the data set with Plasmodium falciparum [14]; 1.5 in the data set with Plasmodium falciparum [16]; 0.8 in [17]. Moreover, in the data set on Plasmodium falciparum [9], the “Ratio IC50” value is given as 0.8. Besides, the inhibition at 10 µM with Plasmodium falciparum [3] is 66.5%. In addition, the outcome in the data set with Plasmodium falciparum [12] and in the data set with Plasmodium falciparum [15] was Active. The IC50 with Plasmodium falciparum [4] was 38 nM; in the data set on Plasmodium falciparum [7] it was 46 nM; in the data set on Plasmodium falciparum [18] it was 20 nM; in the data set with Plasmodium falciparum [19], 40 nM; in the data set with Plasmodium falciparum [20], 50 nM; with Plasmodium falciparum [21] it was 71 nM. For the same compound, the inhibition in data set [5] is less than 50%. Further, in data set [8], the selectivity ratio stood at 211. The Percent inhibition of ookinete formation at 10 µM with Plasmodium berghei stood at 43%.
`Cc1cc(Nc2ccc3ccccc3c2)n2nc(C(F)(F)F)nc2n1` came in with a half-inhibitory concentration (IC50) in [22] of 700 nM. Besides, the “Ratio IC50” value in the data set with Plasmodium falciparum [23] was 10.
In the data set on Plasmodium falciparum [24], `Clc1ccc2c(N3CCN(CCCN4CCN(c5ccnc6cc(Cl)ccc56)CC4)CC3)ccnc2c1` [PIPERAQUINE] gave a half-maximal inhibitory concentration (IC50) of 60 nM.
